Counter-ions that a name gives are not always drawn. Like-named read-outs stand apart in the source and are kept apart here.
Experiments:
[1] = Non-transformed data, least squares mean; 324 mg, fasted conditions
[2] = for AUC0-INF / AUC0-t / Cmax: 260 mg, 1 capsule (dose adjusted to 1.25 × 324 mg)
[3] = in vivo
[4] = Mean plasma quinine concentrations over 24 hours following a single oral dose of quinine sulfate (Example 1, Studies 1 and 2); type: in vivo, human; settings: Study 2 C: single oral 324 mg capsule, fasting; 0 hours
[5] = 2 × 324 mg
[6] = human, in vivo, po
[7] = in vivo; remark: listed apart in the source
[8] = dosing an amount between 324 mg to 658 mg, fasted
[9] = Ln-transformed data, geometric mean, fasted
[10] = Non-transformed data, least squares mean, fasted
[11] = Ln-transformed data, geometric mean, fasted conditions
[12] = Non-transformed data, least squares mean, fasted conditions
[13] = Non-transformed data, least squares mean, fed conditions

Which results are given for `C=C[C@H]1C[N@@]2CC[C@H]1C[C@H]2[C@H](O)c1ccnc2ccc(OC)cc12` [Quinine Sulfate, cinchonan-9-ol, 6′-methoxy-, (8α,9R)-, sulfate (2:1)]?
kelim [1]: 0.0564; AUC0-INF [2, 9]: 32072.92 ng·h/mL; AUC0-t [2, 9]: 30019.28 ng·h/mL; Cmax [2, 9]: 2251.55 ng/mL; AUC0-INF [2, 10]: 33582.46 ng·h/mL; AUC0-t [2, 10]: 31285.26 ng·h/mL; Cmax [2, 10]: 2310.90 ng/mL; Tmax ([2]; Non-transformed data, least squares mean, 324 mg, 1 capsule, fasted): 2.75; pharmacokinetic profile proportionality to dose ([2]; dose amount between 280 mg to 324 mg): linearly proportional; Tmax ([3]; human, 648 mg): 2.8 h; dose proportionality (Cmax) [3]: nonlinear dose proportionality; Mean Plasma Concentration [4]: 0; ng/ml; AUC0-INF [5, 11]: 50005.77 ng·h/mL; AUC0-t [5, 11]: 47258.21 ng·h/mL; Cmax [5, 11]: 3197.25 ng/mL; Cmax ([5]; Ln-transformed data, geometric mean, fed conditions): 3332.41 ng/mL; AUC0-INF [5, 12]: 52643.14 ng·h/mL; AUC0-t [5, 12]: 49484.64 ng·h/mL; Cmax [5, 12]: 3293.84 ng/mL; Tmax [5, 12]: 2.68; AUC0-INF [5, 13]: 54409.12 ng·h/mL; AUC0-t [5, 13]: 51228.07 ng·h/mL; mean±SD maximum QTc change from baseline around the quinine Tmax ([6]; 324 mg): 0.01 ± 0.019 s; mean±SD maximum QTc change from baseline around the quinine Tmax ([6]; 648 mg): 0.012 ± 0.018 s; Tmax ([7]; human, 324 mg): 2.6 h; Cmax and AUC0-t between the fed and fasted states ([7]; po): substantially unchanged; pharmacokinetic profile proportionality to dose [8]: not linearly proportional

Source: US20130005764A1, “QUININE DOSAGE FORMS AND METHODS OF USE THEREOF” (priority 2006, published 2013)
